In ChEMBL document CHEMBL2202953, “Structure-based redesign of an edema toxin inhibitor” (Bioorg Med Chem, 2012):
pIC50: −log10 of the molar value.

Experiments:
[1] = biological target: T1, Calmodulin-sensitive adenylate cyclase (Bacillus anthracis, UniProt P40136); assay type: cell-based, RAW264.7
T1 sequence (P40136 whole entry): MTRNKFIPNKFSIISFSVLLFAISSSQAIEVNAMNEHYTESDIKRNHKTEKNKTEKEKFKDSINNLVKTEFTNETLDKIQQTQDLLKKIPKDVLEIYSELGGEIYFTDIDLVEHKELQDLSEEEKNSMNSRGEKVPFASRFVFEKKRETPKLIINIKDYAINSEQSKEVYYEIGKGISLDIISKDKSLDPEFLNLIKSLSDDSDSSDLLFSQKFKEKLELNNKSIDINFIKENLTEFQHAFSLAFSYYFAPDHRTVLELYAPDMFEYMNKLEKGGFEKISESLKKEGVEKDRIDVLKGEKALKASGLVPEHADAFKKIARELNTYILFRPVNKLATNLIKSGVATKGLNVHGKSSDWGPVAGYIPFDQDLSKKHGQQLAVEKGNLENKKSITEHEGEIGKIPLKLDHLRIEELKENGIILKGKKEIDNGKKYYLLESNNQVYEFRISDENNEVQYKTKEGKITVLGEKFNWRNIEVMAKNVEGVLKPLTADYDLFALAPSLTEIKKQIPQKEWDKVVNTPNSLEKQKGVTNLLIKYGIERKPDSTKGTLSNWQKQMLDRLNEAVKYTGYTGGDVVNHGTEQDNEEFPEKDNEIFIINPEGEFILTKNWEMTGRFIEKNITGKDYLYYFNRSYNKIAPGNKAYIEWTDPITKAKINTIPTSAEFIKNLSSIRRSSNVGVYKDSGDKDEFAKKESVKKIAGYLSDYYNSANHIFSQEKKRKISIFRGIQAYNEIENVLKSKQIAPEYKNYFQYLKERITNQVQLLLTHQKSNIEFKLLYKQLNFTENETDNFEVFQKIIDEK

Salmonella typhimurium [2] = assay: Mutagenicity in Salmonella typhimurium TAMix at 0.975 ug/mL to 1000 ug/mL after 48 hrs in presence of liver S9 fraction by Ames test; assay type: toxicity, organism-based; conditions: salmonella enterica subsp. enterica serovar typhimurium, s9, 48 h
[3] = Cytotoxic activity against human GenM-T01 cells after 24 hrs; assay type: cell-based; conditions: genm-t01, 24 h
Salmonella typhimurium [4] = assay: Mutagenicity in Salmonella typhimurium TA98 at 0.975 ug/mL to 1000 ug/mL after 48 hrs in presence of liver S9 fraction by Ames test; assay type: toxicity, organism-based; conditions: salmonella enterica subsp. enterica serovar typhimurium, s9, 48 h
Salmonella typhimurium [5] = assay: Mutagenicity in Salmonella typhimurium TA98 at 0.975 ug/mL to 1000 ug/mL after 48 hrs in absence of liver S9 fraction by Ames test; assay type: toxicity, organism-based; conditions: salmonella enterica subsp. enterica serovar typhimurium
[6] = Genotoxicity against human GenM-T01 cells assessed as induction of GFP expression after 48 hrs by GADD45alpha-GFP assay; assay type: toxicity, cell-based; conditions: genm-t01, 48 h
[7] = Cytotoxic activity against human GenM-T01 cells after 48 hrs; assay type: cell-based; conditions: genm-t01, 48 h
[8] = Genotoxicity against human GenM-T01 cells assessed as induction of GFP expression after 24 hrs by GADD45alpha-GFP assay; assay type: toxicity, cell-based; conditions: genm-t01, 24 h
Salmonella typhimurium [9] = assay: Mutagenicity in Salmonella typhimurium TAMix at 0.975 ug/mL to 1000 ug/mL after 48 hrs in absence of liver S9 fraction by Ames test; assay type: toxicity, organism-based; conditions: salmonella enterica subsp. enterica serovar typhimurium
[10] = Cytotoxic activity against human GenM-C01 cells after 48 hrs; assay type: cell-based; conditions: genm-c01, 48 h

SMILES	pIC50 [1]	further results
O=C(O)c1cccc(NC(=O)c2ccccc2)c1	< 4.00	–
COC(=O)c1cccc(NC(=O)c2cccc(-c3ccccc3)c2)c1	4.72	–
COC(=O)c1cccc(NC(=O)c2cccc3c2C(=O)c2ccccc2-3)c1	4.96	–
Nc1ccc(NC(=O)c2cccc3c2C(=O)c2ccccc2-3)c(C(=O)O)c1	4.10	–
Nc1ccc(NC(=O)c2cccc3c2C(=O)c2ccccc2-3)cc1C(=O)O	5.22	–
O=C(O)c1cccc(NC(=O)c2cccc3c2C(=O)c2ccccc2-3)c1Cl	5.04	–
COC(=O)c1cc(NC(=O)c2cccc3c2C(=O)c2ccccc2-3)ccc1O	< 4.00	–
CSc1cccc(NC(=O)c2cccc3c2C(=O)c2ccccc2-3)c1	4.58	–
O=C(Nc1cccc(OC(F)(F)F)c1)c1cccc2c1C(=O)c1ccccc1-2	5.17	–
O=C(NO)c1cccc(NC(=O)c2cccc3c2C(=O)c2ccccc2-3)c1	4.89	–
O=C(O)c1cccc(NC(=O)c2cccc3c2C(=O)c2ccccc2-3)c1	–	Activity (Salmonella typhimurium [2]): Non-toxic; MTC [3]: 62.5 µg/mL; Activity (Salmonella typhimurium [4]): Non-toxic; Activity (Salmonella typhimurium [5]): Non-toxic; MTC [6]: 62.5 µg/mL; MTC [7]: 62.5 µg/mL; MTC [8]: 62.5 µg/mL; Activity (Salmonella typhimurium [9]): Non-toxic; MTC [10]: 62.5 µg/mL
